The text below walks through data of patent US20200407370A1, “PEPTIDYLARGININE DEIMINASE INHIBITOR AND USE THEREOF” (Nanjing Transthera Biosciences Co., Ltd., priority 2018, published 2020).

Series [1] has as its target T1, Peptidylarginine deiminase 4 (PAD4) (Homo sapiens, UniProt Q9UM07).
T1 construct: purchased Cayman 10500
Put plainly: Assay of enzyme-inhibiting activity (PAD4, FAM-AcH4(1-5) peptide, Caliper detection). The series is classed as biochemical. The note with it: 10 nM PAD4, 5 μM peptide, 0.1 mM Ca2+, pH 8.0. As to the method: Experimental Example 1: Assay of Enzyme-Inhibiting Activity of Compound
Sample: The compound disclosed herein prepared according to exemplary methods.
Peptidylarginine deiminase 4 (PAD4): Cayman, Cat. No. 10500, Lot. No. 0519694;
Carboxyfluorescein-labeled peptide (Peptide FAM-AcH4 (1-5)): GL Biochem, Cat. No. 0200046, Lot. No. P161110-TL545976;
An appropriate amount of the compound to be assayed was dissolved in DMSO to 10 mM. An appropriate amount of 10 mM mother liquor of the compound to be assayed was diluted to 1.5 mM with DMSO, and the solution was then serially diluted 3-fold with DMSO to give 50× concentrations of gradient compound solutions. Finally, 10-fold dilution was carried out with reaction buffer (an aqueous solution of 100 mM HEPES (2-[4-(2-hydroxyethyl)piperazin-1-yl]ethanesulfonic acid) containing 0.01% v/v Triton, pH 8.0) to give 5× concentrations of gradient compound solutions (150 μM, 50 μM, 16.667 μM, 5.556 μM, 1.852 μM, 0.617 μM, 0.206 μM, 0.069 μM, 0.023 μM, and 0.008 μM).
1) Reaction buffer: aqueous solution of 100 mM HEPES (2-[4-(2-hydroxyethyl)piperazin-1-yl]ethanesulfonic acid) containing 0.01% v/v Triton, pH 8.0;
2) Stop solution: aqueous solution of 100 mM HEPES (2-[4-(2-hydroxyethyl)piperazin-1-yl]ethanesulfonic acid) containing 0.015% w/v Brij-35, 0.2% v/v Coating Reagent (coating solution) #3 (PE, part no. 760050) and 50 mM EDTA, pH 8.0;
3) 2.5× enzyme solution: An appropriate amount of PAD4 was diluted to 2.5× (final concentration: 10 nM) with reaction buffer;
4) 2.5× polypeptide solution: An appropriate amount of carboxyfluorescein -labeled peptide (FAM-AcH4(1-5) peptide) and CaCl2) solution was diluted to 2.5× (the final concentration of polypeptide: 5 μM, the final concentration of Ca^2+: 0.1 mM) with reaction buffer.
5 μL of 5× compound solutions or solvents with different concentrations were added to a 384-well plate, 10 μL of 2.5× enzyme solution was then added, and the plate was incubated at room temperature for 10 min. 10 μL of 2.5× polypeptide solution was then added to each well, and the plate was incubated at 28° C. for a certain period of time. 25 μL of stop solution was added to stop reaction. Caliper was used for detection. The inhibition rate was calculated according to the following formula:
Inhibition percentage=(max−transformation)/(max−min)*100.
“max” denotes DMSO control; and “min” denotes low control.

Series [2] in a line: Liver microsomal stability in human. The note with it: human liver microsomes, 0.5 mg protein/mL, 1 μM compound, 37° C. The format is in vitro ADME. As to the method: (§1) Experimental Example 2: Evaluation on Liver Microsomal Stability of the Compound Disclosed Herein in Human/Canine
(§2) An appropriate amount of the compound was precisely weighed and dissolved in DMSO to prepare a 5.0 mM stock solution. 5.0 mM stock solution was diluted to 1.0 mM with DMSO, and then diluted with water to 10 μM, serving as a compound working solution for later use (DMSO content in the reaction system: 0.1% v/v).
(§3) • (1) The liver microsomes (20 mg protein/mL) were taken from a −80° C. refrigerator, pre-incubated on a 37° C. water bath thermostatic oscillator for 3 min, and thawed for use. • (2) A mixed incubation system solution (without compounds or β-NADPH) was prepared according to the proportion of “composition of the incubation system” described above and pre-incubated on a 37° C. water bath thermostatic oscillator for 2 min. • (3) Control group (without β-NADPH): 30 μL of water and 30 μL of compound working solution (10 μM) were added to 240 μL of the mixed incubation system solution in step (2), and the mixture was vortexed for 30 s and mixed. The total volume of the mixture was 300 μL. The sample was duplicated. The reaction solution was placed on a 37° C. water bath thermostatic oscillator for incubation, and timing was started. Samples were collected at 0 min and 60 min. • (4) Sample group: 70 μL of β-NADPH solution (10 mM) and 70 μL of compound working solution (10 μM) were added to 560 μL of the mixed incubation system solution in step (2), and the total volume of the mixture was 700 μL. The mixture was vortexed for 30 s and mixed. The sample was duplicated. The reaction solution was placed on a 37° C. water bath thermostatic oscillator for incubation, and timing was started. Samples were collected at 0 min, 5 min, 10 min, 20 min, 30 min and 60 min after timing. • (5) The reaction solution was vortexed for 3 min, and centrifuged at 12,000 rpm for 5 min. • (6) 50 μL of the supernatant was added to 150 μL of water, and the resulting solution was vortexed and mixed before LC/MS/MS analysis.
(§4) The half-life (t1/2) and clearance (Cl) were calculated using the following first-order kinetic formula:
(§5) Vd=1/protein content in liver microsomes
(§6) Note: k denotes the slope of the logarithm of the remaining amount of a compound vs. time, Vd denotes apparent volume of distribution, C0 denotes drug concentration at 0 h, Ct denotes drug concentration at time t, t denotes time, e denotes natural number, and Clint denotes intrinsic clearance.

Series [3] can be described thus: Liver microsomal stability in canine. The series is classed as in vitro ADME. The note with it: dog; canine liver microsomes, 0.5 mg protein/mL, 1 μM compound, 37° C. As for the experimental part: as §1, §2, §3, §4, §5, §6
For orientation: Microsomes from liver hold many membrane-bound enzymes, among them those of drug oxidation.

The nature of series [4]: Pharmacokinetics (PK) of the compound in rats. The format is in vivo. Conditions: rat, plasma, SD rats. As for the experimental part:
Experimental Example 3: Pharmacokinetics (PK) of the Compound in Rats
The test compound was dissolved in a mixture of 5% v/v DMSO+20% v/v (30% v/v solutol (polyethylene glycol-15 hydroxystearate purchased from BASF, batch no. 84773247G0))+75% v/v brine to prepare a solution, which was then administered to SD rats by oral gavage at a dose of 5.0 mg/kg. Blood samples were collected at 15 min, 30 min, 1 h, 2 h, 4 h, 6 h, 8 h and 24 h.
The test compound was dissolved in a mixture of 5% v/v DMSO+20% v/v (30% v/v solutol)+75% v/v brine to prepare a solution, which was administered to SD rats by intravenous bolus at a dose of 1 mg/kg. Blood samples were collected at 5 min, 15 min, 30 min, 1 h, 2 h, 4 h, 6 h, 8 h and 24 h.
The animals were fixed, with tails warmed in a water bath 10 min before each sampling time point. About 100 μL of blood was collected via the tail vein, and the blood samples were collected in anticoagulation tubes containing EDTA-K2. The blood samples were centrifuged at 8,000 rpm for 6 min at 4° C. to give plasma samples within 30 min after collection. The plasma samples were stored in a refrigerator at −80° C. before test.
The sample was taken out from the −80° C. refrigerator, and vortexed for 5 min after naturally thawed at room temperature. 20 μL of plasma sample was pipetted into a 1.5 mL centrifuge tube, and 200 μL of 100 ng/mL internal standard working solution (a solution of tolbutamide in methanol) was added. The resulting mixture was mixed, vortexed for 5 min, and then centrifuged at 12,000 rpm for 5 min. 50 μL of the supernatant was pipetted into a 96-well plate with 150 μL of water per well, and the plate was vortexed for 5 min before LC-MS/MS analysis.
The concentration was calculated by Analyst 1.6.3 from AB Sciex. Parameters such as mean, standard deviation and coefficient of variation (excluding those output directly by Analyst 1.6.3) were calculated by Microsoft Excel. PK parameters were calculated by Pharsight Phoenix 6.1 software NCA (Tmax was in median).

Read-outs that look alike come from different tables or passages of the source.

T1 sequence (Q9UM07 whole entry): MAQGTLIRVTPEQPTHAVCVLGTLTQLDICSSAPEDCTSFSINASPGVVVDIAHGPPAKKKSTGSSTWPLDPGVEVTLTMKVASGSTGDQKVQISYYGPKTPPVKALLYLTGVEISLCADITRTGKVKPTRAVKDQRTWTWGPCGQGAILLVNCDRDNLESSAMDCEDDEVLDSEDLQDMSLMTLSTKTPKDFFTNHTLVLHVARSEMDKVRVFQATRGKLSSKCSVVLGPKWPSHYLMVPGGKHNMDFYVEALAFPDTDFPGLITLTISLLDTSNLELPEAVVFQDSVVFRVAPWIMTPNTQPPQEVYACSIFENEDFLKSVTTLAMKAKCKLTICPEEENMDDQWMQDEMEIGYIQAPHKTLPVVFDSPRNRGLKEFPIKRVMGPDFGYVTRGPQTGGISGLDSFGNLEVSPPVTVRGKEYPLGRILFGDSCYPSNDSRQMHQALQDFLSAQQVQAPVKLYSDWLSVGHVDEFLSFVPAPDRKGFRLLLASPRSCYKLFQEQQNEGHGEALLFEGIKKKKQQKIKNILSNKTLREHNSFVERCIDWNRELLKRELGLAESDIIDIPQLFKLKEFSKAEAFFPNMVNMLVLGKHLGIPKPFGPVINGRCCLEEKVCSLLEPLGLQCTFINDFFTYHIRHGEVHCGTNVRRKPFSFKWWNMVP

The term IC50 denotes the midpoint of a concentration-inhibition curve. Read a low IC50 as greater potency. As usually defined, the microsomal CLint is a measure of how fast metabolising enzymes remove a compound, apart from limits set by blood flow. Lower therefore signals greater metabolic stability. Compound `CCn1c(-c2nc3cc(C(=O)N4CCC[C@@H](N)C4)cc(OC)c3n2C)cc2ccoc21` [Compound 4, (R)-(3-aminopiperidin-1-yl)(2-(6-ethyl-6H-furo[2,3-b]pyrrol-5-yl)-7-methoxy-1-methyl-1H-benzo[d]imidazol-5-yl)methanone] returned a concentration for half-maximal inhibition (IC50) in series [1] of 350 nM. In series [2], the half-life at 1 μM was 11.6 h and the intrinsic clearance (microsomal CLint) at 1 μM turned out to be 2 µL/min/mg. This compound showed a half-life at 1 μM in series [3] of 5.5 h.

`COc1cc(C(=O)N2CCC[C@@H](N)C2)cc2nc(-c3cc4ccoc4n3CC3CC3)n(C)c12` [Compound 24, (R)-(3-aminopiperidin-1-yl)(2-(6-(cyclopropylmethyl)-6H-furo[2,3-b]pyrrol-5-yl)-7-methoxy-1-methyl-1H-benzo[d]imidazol-5-yl)methanone] displayed an IC50 in series [1] of 54 nM.

For orientation: bioavailability means the share of a dose that reaches the circulation, judged against a reference dose that is usually intravenous. A word on the clearance: it is the rate of elimination divided by the concentration. In turn, `CCn1c(-c2nc3cc(C(=O)N4CCC[C@@H](N)C4)cc(OC)c3n2C)cc2cccnc21` [Compound GSK199, reference compound] had an IC50 in series [1] of 140 nM. Also, the half-life at 1 μM in series [2] came to 4.45 h; in series [3] it was 12.8 h. Also, the microsomal CLint at 1 μM came out at 5.2 µL/min/mg in series [2] and 1.8 µL/min/mg in series [3]. Besides, the bioavailability in series [4] (IV 1 mg/kg, PO 5 mg/kg, n = 3, read-out: F (absolute bioavailability)) turned out to be 33.1%. The AUC(0-t) was 330 ng·h/mL in series [4] (IV 1 mg/kg, n = 3, read-out: AUClast iv (area under concentration-time curve 0-24 h)) and 496 ng·h/mL in series [4] (PO 5 mg/kg, n = 3, read-out: AUClast po (area under concentration-time curve 0-24 h)). The clearance in series [4] (IV 1 mg/kg, n = 3, read-out: Cl_obs iv (clearance) (converted)) is 48.2 mL/min/kg. For the same compound, the Vd in series [4] (IV 1 mg/kg, n = 3, read-out: Vz_obs iv (apparent volume of distribution)) came out at 6.75 L/kg. Also, the half-life in series [4] (IV 1 mg/kg, n = 3, read-out: tz1/2 iv (terminal half-life) (converted)) was 1.63 h; in series [4] (PO 5 mg/kg, n = 3, read-out: tz1/2 po (terminal half-life) (converted)) it was 2.23 h. Besides, the Tmax in series [4] (PO 5 mg/kg, n = 3, median, read-out: Tmax po (time to maximum plasma concentration)) stood at 4 h.
